# Laboratory results published in US7855205B2, “Pyrimidinyl substituted fused-pyrrolyl compounds useful in treating kinase disorders” (Janssen Pharmaceutica NV, priority 2004, dated 2010).
# What was measured:
# Aurora-A = molecular target: T1, Aurora-A (Mus musculus, UniProt P97477); assay: Aurora-A Screening Assay; format: biochemical, murine; conditions: 33P-γ-ATP incorporation, 10 μM ATP
# T1 construct: made in house; host or cells: sf9 insect cells
# T1 sequence (P97477 1-395): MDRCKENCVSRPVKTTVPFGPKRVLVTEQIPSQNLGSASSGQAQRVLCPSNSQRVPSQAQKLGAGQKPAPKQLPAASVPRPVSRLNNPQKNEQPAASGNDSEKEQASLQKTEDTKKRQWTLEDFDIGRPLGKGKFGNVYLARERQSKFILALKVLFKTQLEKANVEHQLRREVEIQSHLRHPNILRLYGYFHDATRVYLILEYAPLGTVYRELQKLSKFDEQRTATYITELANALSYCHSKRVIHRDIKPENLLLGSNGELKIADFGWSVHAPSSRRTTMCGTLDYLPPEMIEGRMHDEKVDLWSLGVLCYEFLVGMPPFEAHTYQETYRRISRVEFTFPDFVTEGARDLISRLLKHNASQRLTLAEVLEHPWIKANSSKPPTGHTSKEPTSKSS
# VEGF-R2 = molecular target: T2, VEGF-R2 (Rattus norvegicus, UniProt O08775); assay: VEGF-R2 Screening Assay; format: biochemical; conditions: 33P-γ-ATP incorporation, 10 μM ATP
# T2 construct: polyhistidine (N)
# T2 sequence (O08775 786-1343): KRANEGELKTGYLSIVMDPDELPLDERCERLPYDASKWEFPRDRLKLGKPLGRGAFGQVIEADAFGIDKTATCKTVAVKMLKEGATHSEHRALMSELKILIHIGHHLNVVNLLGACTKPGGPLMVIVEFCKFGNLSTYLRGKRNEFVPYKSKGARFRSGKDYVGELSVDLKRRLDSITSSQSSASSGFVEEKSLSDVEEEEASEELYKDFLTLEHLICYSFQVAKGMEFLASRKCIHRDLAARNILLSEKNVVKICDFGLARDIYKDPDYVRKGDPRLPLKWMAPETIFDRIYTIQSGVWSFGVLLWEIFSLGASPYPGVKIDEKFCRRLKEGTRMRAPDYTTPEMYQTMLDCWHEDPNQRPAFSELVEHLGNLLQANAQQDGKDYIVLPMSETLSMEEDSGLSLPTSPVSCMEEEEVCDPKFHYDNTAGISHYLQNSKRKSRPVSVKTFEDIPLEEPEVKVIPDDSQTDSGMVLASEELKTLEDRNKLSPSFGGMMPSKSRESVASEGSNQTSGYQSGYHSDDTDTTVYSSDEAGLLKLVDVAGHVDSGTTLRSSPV
# Method in brief: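 The N-terminally His-tagged rat VEGF-R2 kinase domain (aa 786-1343), diluted in 50 mM Tris-HCl pH 8.0 with 0.1% BSA, phosphorylated a biotinylated histone-H1 peptide with 33P-γ-ATP on Flashplates for 1 h at 30 °C in 1% DMSO. After washes with EDTA/PBS, immobilized 33P was counted by scintillation.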
# HCT-116 colon carcinoma = assay: Inhibition of cell proliferation (14C-thymidine incorporation), HCT-116; format: cell-based; conditions: Homo sapiens, HCT-116, HCT116
# Method in brief: (§1)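 Cells (3000-8000/well) grown 24 h at 37° C, 5% CO2, then given compound in DMSO for 24 h before adding methyl 14C-thymidine (0.2 uCi/well) for a further 24 h with drug. After PBS washes, incorporation into DNA counted by scintillation.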
# [1] = tested on: HeLa cervical adenocarcinoma; assay: Inhibition of cell proliferation (14C-thymidine incorporation), HeLa; format: cell-based; conditions: Homo sapiens;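 note: HeLa cells in 96-well scintillating plates, compound for 24 h then 24 h more with 14C-thymidine, counting label built into new DNA against DMSO-only control wells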
# CDK1:Cyclin-B = molecular target: T3, CDK1:Cyclin-B (Homo sapiens, UniProt P06493); assay: CDK1 Screening Assay; format: biochemical; conditions: 33P-γ-ATP incorporation, 10 μM ATP
# T3 construct: purchased New England Biolabs, Beverly, Mass; 6020; host or cells: insect cells
# T3 sequence (P06493 whole entry): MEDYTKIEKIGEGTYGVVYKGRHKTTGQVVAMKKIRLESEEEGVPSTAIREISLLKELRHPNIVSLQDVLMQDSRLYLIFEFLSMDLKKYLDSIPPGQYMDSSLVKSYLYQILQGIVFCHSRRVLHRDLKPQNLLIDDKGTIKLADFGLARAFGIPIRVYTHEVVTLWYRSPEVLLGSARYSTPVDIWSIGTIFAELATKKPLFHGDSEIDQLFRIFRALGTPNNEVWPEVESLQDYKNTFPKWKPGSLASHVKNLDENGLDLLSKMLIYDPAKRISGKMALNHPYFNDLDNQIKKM
# T3 sequence (P14635 whole entry partner): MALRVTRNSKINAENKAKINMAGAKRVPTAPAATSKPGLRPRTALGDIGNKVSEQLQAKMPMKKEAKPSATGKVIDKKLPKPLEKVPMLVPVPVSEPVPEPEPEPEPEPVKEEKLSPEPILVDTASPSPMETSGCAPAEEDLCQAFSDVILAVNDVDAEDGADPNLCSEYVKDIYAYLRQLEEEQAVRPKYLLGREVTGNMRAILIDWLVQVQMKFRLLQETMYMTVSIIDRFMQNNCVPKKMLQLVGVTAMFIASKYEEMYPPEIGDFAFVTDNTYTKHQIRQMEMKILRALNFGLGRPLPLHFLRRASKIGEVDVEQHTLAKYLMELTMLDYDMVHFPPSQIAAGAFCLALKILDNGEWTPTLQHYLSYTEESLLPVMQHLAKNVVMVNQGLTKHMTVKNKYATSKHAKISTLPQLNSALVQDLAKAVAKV
# Method in brief: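 Human CDK1/cyclin B co-expressed in insect cells (30 ng/well) in 50 mM Tris pH 8, 10 mM MgCl2, with 10 μM ATP, 33P-γ-ATP and 0.025 μM biotinylated histone H1 peptide (reaction-mix levels); 1% DMSO final. 1 h at 30° C. 33P incorporation into streptavidin-captured peptide by scintillation counting.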
# A375 malignant melanoma = assay: Inhibition of cell proliferation (14C-thymidine incorporation), A375; format: cell-based, human; conditions: Homo sapiens, A-375
# Method in brief: as §1
# RET = molecular target: T4, RET (Homo sapiens, UniProt P07949); assay: RET Kinase Screening Assay; format: biochemical; conditions: 33P-γ-ATP incorporation, 10 μM ATP
# T4 construct: the RET cytoplasmic domain consisting of the last 492 amino acids of the intracellular domain of the RET tyrosine kinase; histidine tag (N); made in house; host or cells: Hi5 insect cells
# T4 sequence (P07949 658-1114 limits assumed): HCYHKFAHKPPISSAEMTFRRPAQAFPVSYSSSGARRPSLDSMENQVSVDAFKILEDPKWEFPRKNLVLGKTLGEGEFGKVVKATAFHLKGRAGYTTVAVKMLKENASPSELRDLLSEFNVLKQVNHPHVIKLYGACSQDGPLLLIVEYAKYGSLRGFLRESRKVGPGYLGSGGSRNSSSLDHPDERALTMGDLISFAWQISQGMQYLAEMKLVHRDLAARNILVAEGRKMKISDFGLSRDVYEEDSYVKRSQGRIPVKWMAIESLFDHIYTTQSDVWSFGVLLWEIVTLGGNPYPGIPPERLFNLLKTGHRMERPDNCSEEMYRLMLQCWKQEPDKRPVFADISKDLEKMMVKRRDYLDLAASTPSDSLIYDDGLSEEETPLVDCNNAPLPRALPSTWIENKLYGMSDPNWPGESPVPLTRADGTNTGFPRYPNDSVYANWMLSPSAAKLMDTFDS
Compound,IC50 (Aurora-A) [µM],IC50 (VEGF-R2) [µM],IC50 (HCT-116 colon carcinoma) [µM],IC50 [1] [µM],IC50 (CDK1:Cyclin-B) [µM],IC50 (A375 malignant melanoma) [µM],IC50 (RET) [µM]
"COc1ccc(Nc2nccc(-c3c[nH]c4ncccc34)n2)cc1 [Cpd 5, (4-Methoxy-phenyl)-[4-(1H-pyrrolo[2,3-b]pyridin-3-yl)-pyrimidin-2-yl]-amine]",0.134,0.238,0.034,0.059,0.011,0.05,1.14
"COc1cccc(Nc2nccc(-c3c[nH]c4ncccc34)n2)c1 [Cpd 6, (3-Methoxy-phenyl)-[4-(1H-pyrrolo[2,3-b]pyridin-3-yl)-pyrimidin-2-yl]-amine]",0.1,0.14,0.72,1.46,0.119,0.95,~1
"COc1ccccc1Nc1nccc(-c2c[nH]c3ncccc23)n1 [Cpd 7, (2-Methoxy-phenyl)-[4-(1H-pyrrolo[2,3-b]pyridin-3-yl)-pyrimidin-2-yl]-amine]",0.497,0.82,0.29,0.35,0.044,0.35,> 10
"Cc1ccc(Nc2nccc(-c3c[nH]c4ncccc34)n2)cc1 [Cpd 10, [4-(1H-Pyrrolo[2,3-b]pyridin-3-yl)-pyrimidin-2-yl]-p-tolyl-amine]",0.29,0.2,0.23,0.22,0.04,0.25,~10

# The remaining lines, values ahead:
IC50 (Aurora-A) [µM],IC50 (VEGF-R2) [µM],IC50 (HCT-116 colon carcinoma) [µM],IC50 [1] [µM],IC50 (CDK1:Cyclin-B) [µM],IC50 (A375 malignant melanoma) [µM],IC50 (RET) [µM],Compound
~1,~1,0.56,1.01,0.0696,0.97,> 10,"Clc1ccc(Nc2nccc(-c3c[nH]c4ncccc34)n2)cc1 [Cpd 11, (4-Chloro-phenyl)-[4-(1-H-pyrrolo[2,3-b]pyridin-3-yl)-pyrimidin-2-yl]-amine]"
0.287,0.878,0.16,0.14,0.0092,0.1,> 10,"Clc1ccccc1Nc1nccc(-c2c[nH]c3ncccc23)n1 [Cpd 12, (2-Chloro-phenyl)-[4-(1H-pyrrolo[2,3-b]pyridin-3-yl)-pyrimidin-2-yl]-amine]"
0.556,0.975,0.0331,0.0903,0.017,0.0369,1,"Cc1cccc(C)c1Nc1nccc(-c2c[nH]c3ncccc23)n1 [Cpd 35, (2,6-Dimethylphenyl)-[4-(1H-pyrrolo[2,3-b]pyridin-3-yl)-pyrimidin-2-yl]-amine]"
0.386,0.211,0.0828,0.194,0.035,0.185,1.62,"Nc1ccc(Nc2nccc(-c3c[nH]c4ncccc34)n2)cc1 [Cpd 37, (4-Aminophenyl)-[4-(1H-pyrrolo[2,3-b]pyridin-3-yl)-pyrimidin-2-yl]-amine]"
0.112,0.081,0.0216,0.0358,0.0096,0.0494,0.821,"CN(C)c1ccc(Nc2nccc(-c3c[nH]c4ncccc34)n2)cc1 [Cpd 38, (4-Dimethylaminophenyl)-[4-(1H-pyrrolo[2,3-b]pyridin-3-yl)-pyrimidin-2-yl]-amine]"
0.084,0.149,0.0244,0.0662,0.01,0.0565,1,"CCOc1ccc(Nc2nccc(-c3c[nH]c4ncccc34)n2)cc1 [Cpd 40, (4-Ethoxyphenyl)-[4-(1H-pyrrolo[2,3-b]pyridin-3-yl)-pyrimidin-2-yl]-amine]"
